Data as given in patent EP4813991A1 (iLeadBMS Co., Ltd., priority 2023, dated 2025).

How the values were obtained:
Assay type in all cases: cell-based
A427 cells = experiment: Lung cancer cell proliferation inhibitory activity, A427; details: Homo sapiens, A-427; 72 hours, Cell Counting Kit-8, relative IC50
Procedure: Experiments were performed using three types of lung cancer cell lines to measure the cell proliferation inhibitory ability of the compounds of the present invention. NCI-H23 and NCI-H358 cells were dispensed into a 96-well plate at 100 µL of cell suspension per well using RPM11640 medium containing 10 % FBS and 1 % PS, followed by incubation in a cell incubator at 37 °C and 5 % CO2. A427 cells were dispensed into a 96-well plate at 100 µL of cell suspension per well using DMEM medium containing 10 % FBS and 1 % PS, followed by incubation in a cell incubator at 37 °C and 5 % CO2. The next day, each Example compound (such as Example 8) dissolved and diluted in DMSO across 10 concentration ranges and a DMSO control group were treated on the cells for 72 hours. After completion of the compound treatment, 10 µL of Cell Counting Kit-8 (Dojindo) reagent was added to each well of the 96-well plate, followed by incubation for 2 hours. After inserting the 96-well plate into an Envision plate reader […], luminescence signals were measured. Relative IC50 values were calculated by fitting a dose-response curve using Graphpad PRISM software.
The lung cancer cell proliferation inhibitory activities of the Example compounds measured by the method described above were evaluated according to the following criteria, and the results are presented in Table 17.

HT29 cells = experiment: Colorectal cancer cell proliferation inhibitory activity, HT29; details: Homo sapiens, HT-29; 72 hours, Cell Counting Kit-8, relative IC50
Procedure: (§1) Experiments were performed using seven types of colorectal cancer cell lines to measure the cell proliferation inhibitory ability of each Example compound. DLD-1, LoVo, SW620, SW480, HCT116, HCT15, and HT29 cells were dispensed into a 96-well plate at 100 µL of cell suspension per well using RPMI1640 medium containing 10 % FBS and 1 % PS, followed by incubation in a cell incubator at 37 °C and 5 % CO2. The next day, each Example compound dissolved and diluted in DMSO across 10 concentration ranges and a DMSO control group were treated on the cells for 72 hours. After completion of the compound treatment, 10 µL of Cell Counting Kit-8 (Dojindo) reagent was added to each well of the 96-well plate, followed by incubation for 2 hours. […] were measured after inserting the 96-well plate into an Envision plate reader […]. Relative IC50 values were calculated by fitting a dose-response curve using Graphpad PRISM software.
(§2) The colorectal cancer cell proliferation inhibitory activities of the Example compounds measured by the method described above were evaluated according to the following criteria, and the results are presented in Table 19.

NCI-N87 = experiment: Gastric cancer cell proliferation inhibitory activity (Cell Counting Kit-8), NCI-N87; details: Homo sapiens, 72 hours, Cell Counting Kit-8, relative IC50
Procedure: as §1, with “six” for “seven”, “gastric” for “colorectal”, “NCI-N87, SNU601, KATO-III, MKN1,” for “DLD-1, LoVo, SW620, SW480, HCT116, HCT15,”, “AGS” for “HT29”, “RPMI1640 medium containing 10 % FBS and 1 % PS, followed by incubation in a cell incubator at 37 °C and 5 % CO2. HS746T cells were dispensed into a 96-well plate at 100 µL of cell suspension per well using DMEM” for “RPMI1640”
The gastric cancer cell proliferation inhibitory activities of the Example compounds measured by the method described above were evaluated according to the following criteria, and the results are presented in Table 20.

[1] = system: Gemcitabine resistant-MIA-PaCa2 cells; experiment: Pancreatic cancer cell proliferation inhibitory activity, Gemcitabine resistant-MIA-PaCa2; details: 72 hours, Cell Counting Kit-8, relative IC50
Procedure: (§3) Experiments were performed using three types of pancreatic cancer cell lines to measure the cell proliferation inhibitory ability of the compounds of the present invention. AsPC-1, MIA-PaCa2-Control, and Gemcitabine resistant-MIA-PaCa2 cells were dispensed into a 96-well plate at 100 uL of cell suspension per well using DMEM medium containing 10 % FBS and 1 % PS, followed by incubation in a cell incubator at 37 °C and 5 % CO2. The next day, the compound of Example 8 dissolved and diluted in DMSO across 10 concentration ranges and a DMSO control group were treated on the cells for 72 hours. After completion of the compound treatment, 10 µL of Cell Counting Kit-8 (Dojindo) reagent was added to each well of the 96-well plate, followed by incubation for 2 hours. […] were measured after inserting the 96-well plate into an Envision plate reader […]. Relative IC50 values were calculated by fitting a dose-response curve using Graphpad PRISM software.
(§4) The pancreatic cancer cell proliferation inhibitory activities of the Example compounds measured by the method described above were evaluated according to the following criteria, and the results are presented in Table 18.

MIA-PaCa2-Control = experiment: Pancreatic cancer cell proliferation inhibitory activity, MIA-PaCa2-Control; details: 72 hours, Cell Counting Kit-8, relative IC50
Procedure: as §3, §4

SW620 = experiment: Colorectal cancer cell proliferation inhibitory activity, SW620; details: Homo sapiens, SW-620; 72 hours, Cell Counting Kit-8, relative IC50
Procedure: as §1, §2

Measured: IC50

CN1CCN(c2cc(NCc3nc4ccc(F)c(F)c4[nH]3)c3ncc(C(F)(F)F)n3n2)CC1 [Example 8, N-((6,7-difluoro-1H-benzo[d]imidazol-2-yl)methyl)-6-(4-methylpiperazin-1-yl)-3-(trifluoromethyl)imidazo[1,2-b]pyridazin-8-amine]
≤ 200 nM: all assays above
